Series [1] in a line: screening based on physicochemical properties (Log P, UVA/UVB absorbance). As to conditions: data not shown.
Series [2] relates to Il1β, Il6, Il10, Tnfα, Ptgs2, Tlr4 expression in SKH-1 mouse skin. The series is described as follows: RT-qPCR of SSL-induced inflammatory genes in SKH-1 mouse skin. It is filed as in vivo. The settings on record: 8 mM BMS-202+SSL vs vehicle+SSL; 24 hr. As to the method: (§1) UVB exposure was performed on AP-1 luciferase reporter mice on the SKH-1 genetic background at a dose of 2.75 kJ/m2 using FS40 bulbs (Q-Lab Corporation) as described before with the modification that mice were imaged 24 hr post UVB exposure using whole body bioluminescence instead of 48 hr post UVB using ear punches. SSL irradiation of SKH-1 mice (Charles River Laboratories, strain code 477) at a dose of 90 kJ/m2 UVA/6 kJ/m2 UVB was performed using UVA-340 bulbs (Q-Lab Corporation) as described before.
(§2) Total RNA was isolated from SSL-treated mouse skin using the Qiagen RNeasy Mini Kit (Qiagen) according to the manufacturer's protocol. RNA integrity was checked by the RNA 6000 Nano chip kit using Agilent 2100 Bioanalyzer (Agilent Technologies). […] Then, 10 ng of cDNA was used for amplification of target genes by quantitative PCR using the following conditions: 95° C. for 10 min followed by 95° C. for 15 sec and 60° C. for 1 min for a total of 40 cycles performed in the ABI7500 Real-Time PCR System (Applied Biosystems). […] After amplification plots were generated, the Ct values (cycle number at which fluorescence reaches threshold) were recorded and quantified using the comparative (ΔΔCt) Ct method as described in the ABI Prism 7500 sequence detection system user guide. Statistical significance was calculated employing the Student's two-tailed t-test.

For the next series, the system named is PD-L1. The series is described as follows: PD-L1 mRNA in SKH-1 mouse skin by RT-qPCR. It is filed as in vivo. The settings on record: topical 8 mM; 24 hr after SSL. As to the method: as §1, §2
(Quantitative PCR measures a nucleic acid by following its amplification.)

The conditions of series [3]: cited from earlier work.

In the case of `COc1nc(OCc2cccc(-c3ccccc3)c2C)ccc1CNCCNC(C)=O` [BMS-202], in series [1], the UVA/UVB absorbance entry was “absence of UVA/UVB absorbance”. Further, the “UV-induced expression of Il1β, Il6, Il10, Tnfα, Ptgs2, Tlr4 (RT-qPCR)” value in series [2] is “strong downregulation”. In the series with PD-L1, the “PD-L1 mRNA expression in full thickness mouse skin (RT-qPCR)” value was “inhibition”. Further, the “Log P” value in series [3] is 3.6.

By Log P is commonly meant the decadic logarithm of the partition coefficient of the neutral form, usually between octanol and water.

These data come from patent publication US20260240826A1, “COMPOSITIONS FOR PD-L1 INHIBITION AND METHODS OF USE THEREOF” (ARIZONA BOARD OF REGENTS ON BEHALF OF THE UNIVERSITY OF …, priority 2023, published 2026).
